Several values for one entry are separate records, joined by “and”; a condition that tells them apart may be missing. Identical values can stand only once.
System: total IκBα
Assay: NanoBiT cell-based immunoassay, total IκBα in MCF-7 cells
Design: species or system human
Conditions: for Total IkB Average / Average / IkB Average: background subtracted; for Raw data / Subtract background / Average: Figure 2d; for Average IKB (background subtracted) / Raw data IKB / Subtract reagent background IKB: 30 min, MCF-7, Fig 7a; for IkB Average / IKB Raw data / IKB Subtract reagent background: without CHX
Procedure: Prior to NanoBiT Cell-Based Immunoassay, 50,000 cells were seeded in 160 µl of complete growth media per well of a 96-well plate and incubated overnight. […] If necessary, the cell culture media were replaced with serum-free media after the cells were stably adherent on the plate and incubated overnight. To treat cells with activators or inhibitors, medium was changed to 30 µl of medium containing inhibitors. If activation of a specific pathway is needed, the cells were stimulated with 10 µl of medium containing activators. To lyse the cells, 10 µl of lysis buffer containing 0.1% digitonin diluted in 1X immunoassay buffer with protease and phosphatase inhibitors was added and the plates were mixed vigorously for 20 min. Then, 50 µl of an antibody mix containing two primary antibodies against the target protein and NanoBiT detecting antibodies (0.3 µl each per well), diluted in 1X immunoassay buffer was added to the lysates. The plates were incubated at 23 °C for 90 min, followed by the addition of 25 µl of Nano-Glo® reagent consisting of Nano-Glo® Luciferase Assay Substrate mixed with 1X immunoassay buffer. Luminescence was measured using a plate-reading luminometer.
Single dose or dose response inhibitor treatments were performed prior to activation of the pathways as follows. For IκBα, the cells were treated in 30 µl medium with IKK16 or MG132 for 60 min before the addition of 10 µl of DMEM containing appropriate concentration of TNFα. To measure phosphorylation of AKT or STAT3, the corresponding NanoBiT immunoassays were developed with MCF-7 or A431 cells, respectively, according the same scheme used to develop the IκBα assay using the primary antibodies for AKT and STAT3 described in the reagents section. […] Treatment with LY294002 was performed in 30 µl medium and cells were incubated for 60 min before the addition of 1 µM Insulin. To measure STAT3 phosphorylation, A431 cells were incubated overnight in DMEM medium without serum. […] After addition of the stimulators, the cells were incubated for additional times as follows. IκBα phosphorylation and degradation analyses required both time courses and single time points as described in figures. […] The NanoBiT immunoassay protocol was followed as described above.
All 96-well assay plates were read using a GloMax® 96 Microplate Luminometer from Promega. The instrument was set to 0.5 s integration time. In order to obtain net change of signal, the reagent background values (signal from the well containing all reagent except primary antibodies) were subtracted from the sample values. To plot and analyze the data, Microsoft Excel and GraphPad Prism® Software were used. IC50 values were determined by using a nonlinear regression fit to a sigmoidal dose response (variable slope).

[1] = Figure 3a and 3b, listed as TNF
[2] = No MG132, TNF 2 min, listed as TNF
[3] = No MG132, TNF 4 min, listed as TNF
[4] = No MG132, TNF 6 min, listed as TNF
[5] = No MG132, TNF 8 min, listed as TNF
[6] = No MG132, TNF 10 min, listed as TNF
[7] = No MG132, TNF 12 min, listed as TNF
[8] = No MG132, TNF 15 min, listed as TNF
[9] = No MG132, TNF 30 min, listed as TNF
[10] = TNF 0.00038147 ng/ml, listed as TNF
[11] = TNF 0.00152588 ng/ml, listed as TNF
[12] = TNF 0.00610352 ng/ml, listed as TNF
[13] = TNF 0.0244141 ng/ml, listed as TNF
[14] = TNF 0.0976562 ng/ml, listed as TNF
[15] = TNF 0.390625 ng/ml, listed as TNF
[16] = TNF 1.5625 ng/ml, listed as TNF

For TNFα, the “Total IkB Average” value (Figure 3a and 3b) was 42170, the “Total IkB Raw data” value [1] was 63440 and 64850 and 64790 and the “Total IkB Subtract reagent background” value [1] was 42600 and 41250 and 42660. For the same substance, the Raw data (Cell # 3500, listed as TNF) was 18670 and 18820, the Subtract background (Cell # 3500, listed as TNF) was 4540 and 4140 and the Raw data (Cell # 7000, listed as TNF) was 18660 and 18670. For the same substance, the Subtract background (Cell # 7000, listed as TNF) was 4530 and 3990, the Raw data (Cell # 14000, listed as TNF) was 18430 and 19060 and the Subtract background (Cell # 14000, listed as TNF) was 4300 and 4380. The Raw data (Cell # 21000) was 19110, the Subtract background (Cell # 21000, listed as TNF) was 4980 and 4430 and the Raw data (Cell # 28000, listed as TNF) was 20250 and 19900. For the same substance, the Subtract background (Cell # 28000, listed as TNF) was 6120 and 5220, the Raw data (Cell # 35000, listed as TNF) was 20910 and 20760 and the Subtract background (Cell # 35000, listed as TNF) was 6780 and 6080. The Raw data (Cell # 42000, listed as TNF) was 21720 and 21040, the Subtract background (Cell # 42000, listed as TNF) was 7590 and 6360 and the Raw data (Cell # 49000, listed as TNF) was 22850 and 23430. The Subtract background (Cell # 49000, listed as TNF) was 8720 and 8750, the Raw data (Cell # 56000, listed as TNF) was 23160 and 23600 and the Subtract background (Cell # 56000, listed as TNF) was 9030 and 8920. For the same substance, the Raw data (Cell # 63000, listed as TNF) was 26970 and 26330, the Subtract background (Cell # 63000, listed as TNF) was 12840 and 11650 and the Average (Cell # 3500) was 4340. For the same substance, the Average (Cell # 7000) was 4260, the Average (Cell # 14000) was 4340 and the Average (Cell # 21000) was 4705. The Average (Cell # 28000) was 5670, the Average (Cell # 35000) was 6430 and the Average (Cell # 42000) was 6975. The Average (Cell # 49000) was 8735, the Average (Cell # 56000) was 8975 and the Average (Cell # 63000) was 12245. The “Total IkB Average” value (No MG132, TNF 2 min) was 63885, the “Total IkB Raw data” value [2] was 78720 and 79300 and 81370 and 83380 and the “Total IkB Subtract reagent background” value [2] was 61913 and 62493 and 64563 and 66573. The “Total IkB Average” value (No MG132, TNF 4 min) was 62935, the “Total IkB Raw data” value [3] was 77560 and 79450 and 81310 and 80650 and the “Total IkB Subtract reagent background” value [3] was 60753 and 62643 and 64503 and 63843. The “Total IkB Average” value (No MG132, TNF 6 min) was 62480, the “Total IkB Raw data” value [4] was 79920 and 79580 and 79430 and 78220 and the “Total IkB Subtract reagent background” value [4] was 63113 and 62773 and 62623 and 61413. The “Total IkB Average” value (No MG132, TNF 8 min) was 58228, the “Total IkB Raw data” value [5] was 76120 and 76190 and 73510 and 74320 and the “Total IkB Subtract reagent background” value [5] was 59313 and 59383 and 56703 and 57513. For the same substance, the “Total IkB Average” value (No MG132, TNF 10 min) was 52595, the “Total IkB Raw data” value [6] was 72590 and 72810 and 65780 and 66430 and the “Total IkB Subtract reagent background” value [6] was 55783 and 56003 and 48973 and 49623. The “Total IkB Average” value (No MG132, TNF 12 min) was 41533, the “Total IkB Raw data” value [7] was 62400 and 61420 and 53610 and 55930 and the “Total IkB Subtract reagent background” value [7] was 45593 and 44613 and 36803 and 39123. The “Total IkB Average” value (No MG132, TNF 15 min) was 29070, the “Total IkB Raw data” value [8] was 51070 and 48840 and 41650 and 41950 and the “Total IkB Subtract reagent background” value [8] was 34263 and 32033 and 24843 and 25143. The “Total IkB Average” value (No MG132, TNF 30 min) was 9615, the “Total IkB Raw data” value [9] was 28150 and 26460 and 25400 and 25680 and the “Total IkB Subtract reagent background” value [9] was 11343 and 9653 and 8593 and 8873. For the same substance, the “Average IKB (background subtracted)” value (TNF 0.00038147 ng/ml) was 68883, the “Raw data IKB” value [10] was 80810 and 81860 and 75990 and the “Subtract reagent background IKB” value [10] was 70140 and 71190 and 65320. The “Average IKB (background subtracted)” value (TNF 0.00152588 ng/ml) was 65947, the “Raw data IKB” value [11] was 78690 and 78640 and 72520 and the “Subtract reagent background IKB” value [11] was 68020 and 67970 and 61850. For the same substance, the “Average IKB (background subtracted)” value (TNF 0.00610352 ng/ml) was 63850, the “Raw data IKB” value [12] was 76470 and 76630 and 70460 and the “Subtract reagent background IKB” value [12] was 65800 and 65960 and 59790. For the same substance, the “Average IKB (background subtracted)” value (TNF 0.0244141 ng/ml) was 59300, the “Raw data IKB” value [13] was 73310 and 70780 and 65820 and the “Subtract reagent background IKB” value [13] was 62640 and 60110 and 55150. For the same substance, the “Average IKB (background subtracted)” value (TNF 0.0976562 ng/ml) was 52567, the “Raw data IKB” value [14] was 65850 and 63760 and 60100 and the “Subtract reagent background IKB” value [14] was 55180 and 53090 and 49430. For the same substance, the “Average IKB (background subtracted)” value (TNF 0.390625 ng/ml) was 37353, the “Raw data IKB” value [15] was 46770 and 47240 and 50060 and the “Subtract reagent background IKB” value [15] was 36100 and 36570 and 39390. The “Average IKB (background subtracted)” value (TNF 1.5625 ng/ml) was 21387, the “Raw data IKB” value [16] was 30440 and 30700 and 35030 and the “Subtract reagent background IKB” value [16] was 19770 and 20030 and 24360. For the same substance, the “Average IKB (background subtracted)” value (TNF 6.25 ng/ml) was 12817, the “Raw data IKB” value (TNF 6.25 ng/ml, listed as TNF) was 23480 and 22250 and 24730 and the “Subtract reagent background IKB” value (TNF 6.25 ng/ml, listed as TNF) was 12810 and 11580 and 14060. The “Average IKB (background subtracted)” value (TNF 25 ng/ml) was 10187, the “Raw data IKB” value (TNF 25 ng/ml, listed as TNF) was 20190 and 20330 and 22050 and the “Subtract reagent background IKB” value (TNF 25 ng/ml, listed as TNF) was 9520 and 9660 and 11380. For the same substance, the “Average IKB (background subtracted)” value (TNF 100 ng/ml) was 9587, the “Raw data IKB” value (TNF 100 ng/ml, listed as TNF) was 19860 and 20090 and 20820 and the “Subtract reagent background IKB” value (TNF 100 ng/ml, listed as TNF) was 9190 and 9420 and 10150. For the same substance, the “IkB Average” value (TNF 5 min) was 50908, the “IKB Raw data” value (TNF 5 min, listed as TNF) was 65320 and 61760 and 61990 and 62780 and the “IKB Subtract reagent background” value (TNF 5 min, listed as TNF) was 53265 and 49705 and 49935 and 50725. For the same substance, the “IkB Average” value (TNF 10 min) was 31425, the “IKB Raw data” value (TNF 10 min, listed as TNF) was 42500 and 40590 and 43600 and 47230 and the “IKB Subtract reagent background” value (TNF 10 min, listed as TNF) was 30445 and 28535 and 31545 and 35175. For the same substance, the “IkB Average” value (TNF 20 min) was 10930, the “IKB Raw data” value (TNF 20 min, listed as TNF) was 21120 and 20330 and 22530 and 27960 and the “IKB Subtract reagent background” value (TNF 20 min, listed as TNF) was 9065 and 8275 and 10475 and 15905. The “IkB Average” value (TNF 30 min) was 8948, the “IKB Raw data” value (TNF 30 min, listed as TNF) was 19500 and 19660 and 20770 and 24080 and the “IKB Subtract reagent background” value (TNF 30 min, listed as TNF) was 7445 and 7605 and 8715 and 12025. The “IkB Average” value (TNF 40 min) was 12565, the “IKB Raw data” value (TNF 40 min, listed as TNF) was 24080 and 23090 and 23770 and 27540 and the “IKB Subtract reagent background” value (TNF 40 min, listed as TNF) was 12025 and 11035 and 11715 and 15485. For the same substance, the “IkB Average” value (TNF 60 min) was 23095, the “IKB Raw data” value (TNF 60 min, listed as TNF) was 35230 and 33190 and 36060 and 36120 and the “IKB Subtract reagent background” value (TNF 60 min, listed as TNF) was 23175 and 21135 and 24005 and 24065. For the same substance, the “IkB Average” value (TNF 80 min) was 35000, the “IKB Raw data” value (TNF 80 min, listed as TNF) was 46920 and 46230 and 46940 and 48130 and the “IKB Subtract reagent background” value (TNF 80 min, listed as TNF) was 34865 and 34175 and 34885 and 36075. For the same substance, the “IkB Average” value (TNF 100 min) was 40533, the “IKB Raw data” value (TNF 100 min, listed as TNF) was 53930 and 50010 and 52000 and 54410 and the “IKB Subtract reagent background” value (TNF 100 min, listed as TNF) was 41875 and 37955 and 39945 and 42355. The “IkB Average” value (TNF 120 min) was 41718, the “IKB Raw data” value (TNF 120 min, listed as TNF) was 56260 and 53820 and 52280 and 52730 and the “IKB Subtract reagent background” value (TNF 120 min, listed as TNF) was 44205 and 41765 and 40225 and 40675.

Reference: PMC6941952, “A homogeneous bioluminescent immunoassay to probe cellular signaling pathway regulation” (Communications Biology, 2020)
